Source: article PMC3326523, “Histone Recognition and Large-Scale Structural Analysis of the Human Bromodomain Family” (Cell, 2012)
Like-named read-outs stand apart in the source and are kept apart here. Where no end group is shown, it is not given here.

Key:
CREBBP = molecular target: T1, CREBBP (Homo sapiens, UniProt Q92793); test: Isothermal titration calorimetry (ITC) of histone peptides; type: binding
T1 construct: His6 tag with TEV cleavage site (N, cleaved yes); made in house; host or cells: E. coli BL21(DE3)-R3

33 representative BRDs = test: SPOT peptide array of singly acetylated histone peptides; type: binding, human; conditions: His6-tagged BRDs 1 μM; in words
Description: Peptides were synthesized on cellulose membranes using a MultiPep SPOT peptide arrayer (Intavis). His6-tagged BRDs were added to a final concentration of 1 μM, and blots were developed using an ECL kit (Thermo Scientific) following the manufacturer's protocol.
Three different types of SPOT membrane were utilized in order to probe preferences of BRD recognition sites: the first array contained peptides from all four core histones (H2A, H2B, H3 and H4) covering all possible lysine acetylation sites, with peptide sizes ranging from 10 to 14 amino acids. […]
Peptides for the first two arrays were synthesized directly on cellulose membranes (Intavis) using a MultiPep SPOT peptide arrayer (Intavis) and commercially available standard (Intavis) or modified (Bachem) L-amino acid precursors as previously described ([Nady et al., 2008]). The quality of the synthesized array was evaluated as follows: i) immune reactive peptides were identified by incubation of the membrane with an anti-His antibody in the absence of any His6-tagged BRD. […]
Each membrane was washed 3 times in PBST, blocked for 1 hr with 10% milk in PBST, and washed again 3 × 5 min with PBST. […] Chem-illuminescence was detected with an Image reader (Fujifilm LAS-4000 ver.2.0) with an incremental exposure time of 5 min for a total of 80 min. […]

T1 sequence (Q92793 with tags, fused parts or gaps): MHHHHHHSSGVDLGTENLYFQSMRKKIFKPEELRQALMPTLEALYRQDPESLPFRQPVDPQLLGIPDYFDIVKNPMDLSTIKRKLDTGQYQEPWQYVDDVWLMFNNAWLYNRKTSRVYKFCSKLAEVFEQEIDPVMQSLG

Compound | interaction with BRDs in SPOT array of singly acetylated peptides (33 representative BRDs) | further results
CC(=O)NCCCC[C@H](NC(=O)CNC(=O)CNC(=O)[C@@H](NC(=O)[C@H](CO)NC(=O)[C@@H](N)CCCCN)[C@@H](C)O)C(=O)N[C@@H](C)C(=O)N1CCC[C@H]1C(=O)N[C@@H](CCCNC(=N)N)C(=O)N[C@@H](CCCCN)C(=O)N[C@@H](CCC(N)=O)C(=O)N[C@@H](Cc1ccc(O)cc1)C(=O)O [H3K14ac] | – | Kd (CREBBP): 733 µM
CC(=O)NCCCC[C@H](NC(=O)CNC(=O)CNC(=O)[C@@H](NC(=O)[C@H](COP(=O)(O)O)NC(=O)[C@@H](N)CCCCN)[C@@H](C)O)C(=O)N[C@@H](C)C(=O)N1CCC[C@H]1C(=O)N[C@@H](CCCNC(=N)N)C(=O)N[C@@H](CCCCNC(C)=O)C(=O)N[C@@H](CCC(N)=O)C(=O)N[C@@H](Cc1ccc(O)cc1)C(=O)O [H3pS10K14acK18ac] | – | Kd (CREBBP; ITC, 10 or 15°C, 50 mM HEPES pH 7.5, 150 mM NaCl, read-out: KD of CREBBP): 131 µM
H2AK36: promiscuous H2AK36-containing array peptide (LLRK(Ac)GNYSERVGA) | interacted with most BRDs | –
H2BK85: promiscuous H2BK85-containing array peptide (AHYNK(Ac)RSTITSRE) | interacted with most BRDs | –
